Experimental data published in publication PMC6620029 (Combinatorial chemistry & high throughput screening, 2009).

Target: human serum albumin (HSA) (Homo sapiens, UniProt P02768)
Assay: 1D 1H NMR line broadening with HSA
Type: binding

Sequence of human serum albumin (HSA) (P02768 25-609): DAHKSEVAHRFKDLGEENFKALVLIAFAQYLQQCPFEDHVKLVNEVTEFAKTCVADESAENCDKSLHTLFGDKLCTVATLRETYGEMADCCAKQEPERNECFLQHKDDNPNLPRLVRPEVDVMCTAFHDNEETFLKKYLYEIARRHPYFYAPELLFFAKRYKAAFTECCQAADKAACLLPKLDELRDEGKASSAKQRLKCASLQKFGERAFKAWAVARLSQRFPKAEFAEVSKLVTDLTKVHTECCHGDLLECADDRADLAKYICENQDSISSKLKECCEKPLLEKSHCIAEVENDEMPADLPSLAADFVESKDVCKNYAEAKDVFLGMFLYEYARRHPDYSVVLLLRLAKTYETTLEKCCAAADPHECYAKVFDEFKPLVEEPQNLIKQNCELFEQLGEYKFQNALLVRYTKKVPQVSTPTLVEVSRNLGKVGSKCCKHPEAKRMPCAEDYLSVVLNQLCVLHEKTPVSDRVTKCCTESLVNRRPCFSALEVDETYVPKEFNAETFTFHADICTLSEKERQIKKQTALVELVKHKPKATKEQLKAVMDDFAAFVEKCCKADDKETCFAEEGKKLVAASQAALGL

## Cc1cc(=O)oc2cc(O)ccc12 [7-hydroxy-4-methyl coumarin]
  1D 1H NMR line broadening with HSA; competition with warfarin: The NMR resonances of the coumarin-analogue broaden (Fig (6a, b)) from the addition of HSA
